The subject of assay [1] is platelet aggregation (platelet rich plasma). Briefly: Platelet aggregation inhibitory activity, ADP-induced (Pharmacological test 1). The assay is classed as cell-based, human beings. The settings on record: Homo sapiens, ADP (14 to 16 μM), read-out: Platelet aggregation inhibitory rate (%); for inhibition at 100 µM: Conc. 10^-4 mol; for inhibition at 10 µM: Conc. 10^-5 mol; for inhibition at 1 µM: Conc. 10^-6 mol. How it is done: (§1) The platelet aggregation inhibitory activity of test compounds was measured in accordance with the method of Born et al. [J. Physiol., London, 162, 67, (1962)] using a platelet aggregator [Platelet Aggregation Tracer manufactured by Niko Biosceince K.K.].
(§2) To 9 volumes of blood taken from human beings was added 1 volume of 3.8% citric acid and this sample was centrifuged at 1100 rpm for 10 minutes to give a platelet rich plasma (PRP). The remaining sample was further centrifuged at 3000 rpm for 15 minutes to give a platelet poor plasma (PPP).
(§3) The platelets in the PRP obtained above was counted using Coulter Counter, Coulter electronics inc. and diluted to 300000 platelets/μl with the PPP to prepare a PRP solution.
(§4) A cell for measurement of aggregation was charged with a solution containing a fixed concentration of test compounds (1 to 2 μl) and the PRP solution prepared above (200 μl) and warmed at 37° C. for 1 minute. Then, to the cell was added a suspension of adenosine diphosphate (ADP, manufactured by Sigma) or collagen (Collagen Reagent Horm, manufactured by Hormon-Chemie) to induce platelet aggregation and the transparency of the cell was measured and a platelet aggregation curve was prepared. The final concentration of the above ADP and the collagen was adjusted to 14 to 16 μM and 1 to 4 μg/ml, respectively.
(§5) Maximum Aggregation Rate (MAR) of platelets was calculated from the platelet aggregation curve by the following formula: […]
(§6) wherein (a) represents the transparency of PRP measured in the similar test, (b) represents the transparency of the PRP solution containing the test compound and the aggregation inducer at the time of maximum change in the above test, and (c) represents the transparency of the PPP solution measured in the similar test.
(§7) MAR for control with no addition of the test compound was also calculated, and based on this value, the platelet aggregation inhibitory rate (%) of each test compound at various concentrations in the above test was calculated from the following formula:
(§8) Inhibitory rate=[1-(MAR of PRP with addition of test compound)/(MAR of PRP
(§9) with no addition of test compound)]×100

For assay [2] the test system is unchanged. Briefly: Platelet aggregation inhibitory activity, collagen-induced (Pharmacological test 1). The assay is classed as cell-based, human beings. The settings on record: Homo sapiens, Collagen (1 to 4 μg/ml), read-out: Platelet aggregation inhibitory rate (%); for inhibition at 100 µM: Conc. 10^-4 mol; for inhibition at 10 µM: Conc. 10^-5 mol; for inhibition at 1 µM: Conc. 10^-6 mol. The protocol:
as §1, §2, §3, §4, §5, §6, §7, §8, §9

Assay [3] concerns C-AMP phosphodiesterase. Briefly: C-AMP phosphodiesterase inhibitory activity (Pharmacological test 2). The assay is classed as biochemical, dog. The note with it: C-AMP 0.4 μmol.
For assay [4], the system named is Cerebellum blood flow. The assay is described as follows: Topical blood flow in the cerebellum, colored microspheres, anesthetized dog (Pharmacological Test 3). The assay is classed as in vivo, hybrid dog.
In assay [5] the test system is aggregates of platelet (platelet rich plasma). The assay is described as follows: Platelet aggregate dissociation, collagen-induced aggregates (Pharmacological Test 4). The assay is classed as cell-based, human beings. The note with it: Homo sapiens, 5 min, after 5 minutes, read-out: Platelet aggregate dissociation rate (%). The protocol:
as §2, §3
(§10) In the same manner as in the above test 1, the obtained PRP solution (200 μl ) was put in cell for measurement of aggregation and the cell was warmed at 37° C. for 1 minute. Thereto was added ADP or collagen suspension (final concentration of 14 to 16 μM and 1 to 4 μg/ml, respectively) without addition of the test compound to form aggregates of platelet. MAR was determined after stable transparency was obtained. This MAR was referred to as "MAR-1". Then, the test compound was added and MAR was determined from the transparency after 5 minutes. This MAR was referred to as "MAR-2".
(§11) Platelet aggregate dissociation rate (%) was calculated in accordance with the following formula: […]
(§12) Platelet aggregate dissociation rate
(§13) (%)=[(MAR-1)-(MAR-2)]/(MAR-1)×100

For assay [6] the test system is unchanged. The assay is described as follows: Platelet aggregate dissociation, ADP-induced aggregates (Pharmacological Test 4). The assay is classed as cell-based, human beings. The settings on record: Homo sapiens, 5 min, after 5 minutes, read-out: Platelet aggregate dissociation rate (%). How it is done:
as §2, §3, §10, §11, §12, §13

The subject of assay [7] is Brain blood flow. Briefly: Topical blood flow in the brain, colored microspheres, anesthetized dog (Pharmacological Test 3). The assay is classed as in vivo, hybrid dog.
Where [8] appears, read: 3 μg/kg/min i.v. over 30 minutes.
[9] abbreviates: 10 μg/kg/min i.v. over 30 minutes.

Consider `CN(Cc1ccccc1)CC(O)COc1ccc2[nH]c(=O)ccc2c1` (stereo not shown) [compound 1], for which, in assay [1], the inhibition at 100 µM is 79%, the inhibition at 10 µM was 31.7% and the inhibition at 1 µM was determined as 14.9%. In addition, in assay [2], the inhibition at 100 µM was 96.3%, the inhibition at 10 µM was found to be 70.7% and the inhibition at 1 µM turned out to be 3.8%.

Turning to `COc1cccc(CNCC(O)COc2ccc3[nH]c(=O)ccc3c2)c1` (stereo not shown) [compound 2], in assay [1], the inhibition at 100 µM amounted to 89.1%, the inhibition at 10 µM stood at 43.9% and the inhibition at 1 µM came out at 14.9%. For the same molecule, in assay [2], the inhibition at 100 µM is 97.2%, the inhibition at 10 µM is 95.7% and the inhibition at 1 µM was found to be 23.1%. For the same molecule, the “Phosphodiesterase inhibitory rate (%)” value in assay [3] (Conc. 10^-4 mol) turned out to be 2.32%. In assay [3] (Conc. 10^-5 mol), the “Phosphodiesterase inhibitory rate (%)” value came out at 48.63%.

As for `O=c1ccc2cc(OCC(O)CNCc3ccc(Cl)cc3)ccc2[nH]1` (stereo not shown) [compound 3], in assay [1], the inhibition at 100 µM came out at 78.2%, the inhibition at 10 µM amounted to 44.5% and the inhibition at 1 µM worked out at 13.2%. Besides, in assay [2], the inhibition at 100 µM is 97.8%, the inhibition at 10 µM turned out to be 96.7% and the inhibition at 1 µM worked out at 17%. Further, in assay [3] (Conc. 10^-4 mol), the “Phosphodiesterase inhibitory rate (%)” value was 32.46%. Besides, the “Phosphodiesterase inhibitory rate (%)” value in assay [3] (Conc. 10^-5 mol) is on record as 86.11%.

With `CN(Cc1ccccn1)CC(O)COc1ccc2[nH]c(=O)ccc2c1` (stereo not shown) [compound 4], in assay [1], the inhibition at 100 µM is 77.5%, the inhibition at 10 µM stood at 30.5% and the inhibition at 1 µM turned out to be 13.5%. Besides, in assay [2], the inhibition at 100 µM worked out at 97.2% and the inhibition at 10 µM worked out at 64.3%.

For `CN(CCN(C)c1ccccc1)CC(O)COc1ccc2[nH]c(=O)ccc2c1` (stereo not shown) [compound 5], in assay [1], the inhibition at 100 µM came out at 84.8%, the inhibition at 10 µM is 38.4% and the inhibition at 1 µM is 21.6%. Besides, in assay [2], the inhibition at 100 µM is 96.5%, the inhibition at 10 µM is 72.9% and the inhibition at 1 µM was 44.4%.

`COc1ccc(CNCC(O)COc2ccc3[nH]c(=O)ccc3c2)cc1` (stereo not shown) [compound 6]: in assay [1], the inhibition at 100 µM was determined as 77.5%, the inhibition at 10 µM worked out at 43.8% and the inhibition at 1 µM turned out to be 7.4%. Besides, in assay [2], the inhibition at 100 µM was 97%, the inhibition at 10 µM came to 96.7% and the inhibition at 1 µM was 17%.

As to `COc1ccc(CNCC(O)COc2ccc3[nH]c(=O)ccc3c2)cc1OC` (stereo not shown) [compound 7], the inhibition at 100 µM was found to be 96.4% in assay [1], 28% in assay [5] (Conc. 100 μmol), 96.9% in assay [2] and 71.7% in assay [6] (Conc. 100 μmol). The inhibition at 10 µM in assay [1] came to 39%; in assay [5] (Conc. 10 μmol), 13.3%; in assay [2], 91.6%; in assay [6] (Conc. 10 μmol) it was 41.5%. Also, the inhibition at 1 µM in assay [1] worked out at 9.5%; in assay [2], 4.1%. The “Increasing rate of blood flow (%)” value in assay [4] (setting [8]) is on record as 15.2 ± 11.5%; in assay [4] (setting [9]), 29.7 ± 11.5%; in assay [7] (setting [8]), 25.9 ± 7.0%; in assay [7] (setting [9]), 57.8 ± 10.9%. Besides, the inhibition at 30 µM in assay [5] (Conc. 30 μmol) came out at 26.7%; in assay [6] (Conc. 30 μmol) it was 43.3%. Moreover, the “Phosphodiesterase inhibitory rate (%)” value in assay [3] (Conc. 10^-4 mol) was 15.27%; in assay [3] (Conc. 10^-5 mol) it was 72.39%.

As to `O=c1ccc2cc(OCC(O)CNCc3cccc(Cl)c3)ccc2[nH]1` (stereo not shown) [compound 8], in assay [1], the inhibition at 100 µM is 62%, the inhibition at 10 µM came out at 27.4% and the inhibition at 1 µM was 5.1%. In assay [2], the inhibition at 100 µM stood at 93.1%, the inhibition at 10 µM turned out to be 27.7% and the inhibition at 1 µM is 12.3%.

Regarding `CCOc1ccc(CNCC(O)COc2ccc3[nH]c(=O)ccc3c2)cc1OCC` (stereo not shown) [compound 9], the “Phosphodiesterase inhibitory rate (%)” value in assay [3] (Conc. 10^-4 mol) stood at 50.63%; in assay [3] (Conc. 10^-5 mol) it was 89.07%.

Regarding `O=c1ccc2cc(OCC(O)CN(CCO)Cc3ccc(F)cc3)ccc2[nH]1` (stereo not shown) [compound 10], the “Phosphodiesterase inhibitory rate (%)” value in assay [3] (Conc. 10^-4 mol) was 23.90%; in assay [3] (Conc. 10^-5 mol), 74.63%.

Values taken from US5401754A, “Agent for treating thrombosis and phosphodiesterase inhibitor” (Otsuka Pharmaceutical Company, Limited, priority 1991, dated 1995).
